Measurements from PubChem BioAssay (NCI).
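Briefly, cells in 96-well plates were exposed to five compound concentrations for 48 h, and endpoints were estimated by linear interpolation. TGI: concentration producing complete growth inhibition.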

Assays:
Experiment in all cases: DTP human tumour cell line panel, 48 h
[1] = system: 786-0 renal
[2] = system: A549 NSCLC
[3] = system: CAKI-1 renal
[4] = system: COLO 205 colon
[5] = system: DLD-1 colon
[6] = system: DMS 114 small cell lung
[7] = system: EKVX NSCLC
[8] = system: HCC-2998 colon
[9] = system: HCT-116 colon
[10] = system: HL-60(TB) leukemia
[11] = system: HOP-62 NSCLC
[12] = system: HOP-92 NSCLC
[13] = system: HT29 colon
[14] = system: KM12 colon
[15] = system: KM20L2 colon
[16] = system: LOX IMVI melanoma
[17] = system: LXFL 529 NSCLC
[18] = system: M14 melanoma
[19] = system: M19-MEL melanoma
[20] = system: MALME-3M melanoma
[21] = system: NCI-H226 lung
[22] = system: NCI-H23 lung
[23] = system: NCI-H460 lung
[24] = system: NCI-H522 lung
[25] = system: OVCAR-3 ovarian
[26] = system: OVCAR-4 ovarian
[27] = system: OVCAR-5 ovarian
[28] = system: OVCAR-8 ovarian
[29] = system: RXF 393 renal
[30] = system: SF-268 CNS
[31] = system: SF-295 CNS
[32] = system: SF-539 CNS
[33] = system: SK-MEL-2 melanoma
[34] = system: SK-MEL-28 melanoma
[35] = system: SN12C renal
[36] = system: SNB-19 CNS
[37] = system: SNB-75 CNS
[38] = system: SNB-78 CNS
[39] = system: SR leukemia
[40] = system: SW-620 colon
[41] = system: TK-10 renal
[42] = system: U251 CNS
[43] = system: UACC-257 melanoma
[44] = system: UO-31 renal
[45] = system: A498 renal
[46] = system: ACHN renal
[47] = system: BT-549 breast
[48] = system: CCRF-CEM leukemia
[49] = system: DU-145 prostate
[50] = system: HCT-15 colon
[51] = system: HS 578T breast
[52] = system: IGROV1 ovarian
[53] = system: K-562 leukemia
[54] = system: MCF7 breast
[55] = system: MDA-MB-231 breast
[56] = system: MDA-MB-435
[57] = system: MDA-N
[58] = system: MOLT-4 leukemia
[59] = system: NCI/ADR-RES ovarian
[60] = system: PC-3 prostate
[61] = system: RPMI-8226 leukemia
[62] = system: SK-MEL-5 melanoma
[63] = system: SK-OV-3 ovarian
[64] = system: T-47D breast
[65] = system: UACC-62 melanoma

## CCN1CC2(C)CC[C@@H](OC)C34[C@@H]2[C@H](OC(C)=O)C2(OCO[C@@]25C[C@H](OC)C2C[C@]3(O)[C@@H]5[C@H]2O)[C@H]14
[1]
  TGI: > 100 µM
[2]
  TGI: > 100 µM
[3]
  TGI: > 100 µM
[4]
  TGI: > 100 µM
[5]
  TGI: > 100 µM
[6]
  TGI: > 100 µM
[7]
  TGI: > 100 µM
[8]
  TGI: > 100 µM
[9]
  TGI: > 100 µM
[10]
  TGI: > 100 µM
[11]
  TGI: > 100 µM
[12]
  TGI: > 100 µM
[13]
  TGI: > 100 µM
[14]
  TGI: > 100 µM
[15]
  TGI: > 100 µM
[16]
  TGI: > 100 µM
[17]
  TGI: > 100 µM
[18]
  TGI: > 100 µM
[19]
  TGI: > 100 µM
[20]
  TGI: > 100 µM
[21]
  TGI: > 100 µM
[22]
  TGI: > 100 µM
[23]
  TGI: > 100 µM
[24]
  TGI: > 100 µM
[25]
  TGI: > 100 µM
[26]
  TGI: > 100 µM
[27]
  TGI: > 100 µM
[28]
  TGI: > 100 µM
[29]
  TGI: > 100 µM
[30]
  TGI: > 100 µM
[31]
  TGI: > 100 µM
[32]
  TGI: > 100 µM
[33]
  TGI: > 100 µM
[34]
  TGI: > 100 µM
[35]
  TGI: > 100 µM
[36]
  TGI: > 100 µM
[37]
  TGI: > 100 µM
[38]
  TGI: > 100 µM
[39]
  TGI: > 100 µM
[40]
  TGI: > 100 µM
[41]
  TGI: > 100 µM
[42]
  TGI: > 100 µM
[43]
  TGI: > 100 µM
[44]
  TGI: > 100 µM

## O=C(O)CNC(=O)c1cccc2c(=O)c3ccccc3[nH]c12
[1]
  TGI: > 100 µM
[45]
  TGI: > 100 µM
[2]
  TGI: > 100 µM
[46]
  TGI: > 100 µM
[47]
  TGI: > 100 µM
[3]
  TGI: > 100 µM
[48]
  TGI: > 100 µM
[4]
  TGI: > 100 µM
[49]
  TGI: > 100 µM
[7]
  TGI: > 100 µM
[8]
  TGI: > 100 µM
[9]
  TGI: > 100 µM
[50]
  TGI: > 100 µM
[10]
  TGI: > 100 µM
[11]
  TGI: > 100 µM
[12]
  TGI: > 100 µM
[51]
  TGI: > 100 µM
[13]
  TGI: > 100 µM
[52]
  TGI: > 100 µM
[53]
  TGI: > 100 µM
[14]
  TGI: > 86.4 µM
[16]
  TGI: > 100 µM
[18]
  TGI: > 100 µM
[20]
  TGI: > 100 µM
[54]
  TGI: > 100 µM
[55]
  TGI: > 100 µM
[56]
  TGI: > 100 µM
[57]
  TGI: > 100 µM
[58]
  TGI: > 100 µM
[21]
  TGI: > 100 µM
[22]
  TGI: > 100 µM
[23]
  TGI: > 100 µM
[24]
  TGI: > 100 µM
[59]
  TGI: > 100 µM
[25]
  TGI: > 100 µM
[26]
  TGI: > 100 µM
[27]
  TGI: > 100 µM
[28]
  TGI: > 100 µM
[60]
  TGI: > 100 µM
[61]
  TGI: > 100 µM
[29]
  TGI: > 100 µM
[30]
  TGI: > 100 µM
[31]
  TGI: > 100 µM
[32]
  TGI: > 100 µM
[33]
  TGI: > 100 µM
[34]
  TGI: > 100 µM
[62]
  TGI: > 100 µM
[63]
  TGI: > 100 µM
[35]
  TGI: > 100 µM
[36]
  TGI: > 100 µM
[37]
  TGI: > 100 µM
[39]
  TGI: > 100 µM
[40]
  TGI: > 100 µM
[64]
  TGI: > 100 µM
[41]
  TGI: > 100 µM
[42]
  TGI: > 100 µM
[43]
  TGI: > 100 µM
[65]
  TGI: > 100 µM
[44]
  TGI: > 100 µM
